Experimental data from patent US20030207820A1, “Antibacterial compounds with improved pharmacokinetic profiles” (priority 2002, published 2003).
Read-outs that look alike come from different tables or passages of the source.

Assay: Pharmacokinetic profiles by cassette dosing in dog (IV and PO)
Assay type: in vivo
Settings: male beagle dogs, 1 mg/kg; for bioavailability: read-out: F (PO), percent bioavailability
Experimental: The pharmacokinetic profiles of EXAMPLE 20, EXAMPLE 22, EXAMPLE 29 and EXAMPLE 31 were evaluated using cassette dosing protocols in dog. The cassette dosing protocol in dogs combined three test compounds with the reference compound (EXAMPLE 104 of commonly-owned U.S. Pat. No. 5,866,549), each at a dose of 1 mg/kg. The compounds for each cassette were formulated as a solution in an aqueous vehicle containing 10% ethanol and one equivalent hydrochloric acid. Groups of three male beagle dogs received either an intravenous dose (IV) or an oral dose (PO). Sequential blood samples were taken from each animal for 24 hours after dosing. The plasma concentrations of the test compound and reference compounds were simultaneously determined using HPLC-MS/MS following liquid-liquid extraction of the samples. The results are shown in TABLE 2, in which […] is plasma clearance; T1/2 and Tmax are expressed in hours; Cmax is expressed in μg/mL; AUC is expressed in μg·h/mL; F is percent bioavaibility; and volumes of distibution Vc and Vβ are volume of the central compartment and terminal phase distribution, respectively.

Row | SMILES | AUC (dog, in vivo, intravenous dose, read-out: AUC (IV)) [ng·h/mL] | clearance (dog, in vivo, intravenous dose, read-out: CLp (IV), plasma clearance (converted)) [mL/min/kg] | half-life (dog, in vivo, intravenous dose, read-out: T½ (IV) (converted)) [h] | Cmax (dog, in vivo, oral dose) [ng/mL] | Tmax (dog, in vivo, oral dose) [h] | AUC (dog, in vivo, oral dose, read-out: AUC (PO)) [ng·h/mL] | bioavailability (dog, in vivo, oral dose) [%] | half-life (dog, in vivo, oral dose, read-out: T½ (PO) (converted)) [h] | Vc (IV), volume of the central compartment (intravenous dose) | Vβ (IV), terminal phase distribution volume (intravenous dose) | bioavailability (dog, plasma, oral dose) [%] | AUC (IV) (intravenous dose) [ng·h/mL] | CLp (IV), plasma clearance (intravenous dose) | T½ (IV) (intravenous dose) [h] | AUC (PO) (oral dose) [ng·h/mL] | Cmax (PO) (oral dose) [ng/mL] | Tmax (PO) (oral dose) [h] | T½ (PO) (oral dose) [h]
1 | CC[C@H]1OC(=O)[C@H](C)C(=O)[C@H](C)[C@@H](O[C@@H]2O[C@H](C)C[C@H](N(C)C)[C@H]2O)C(C)(OCC#Cc2ccc(-c3nnn(C)n3)s2)C[C@@H](C)C(=O)[C@H](C)[C@H]2NC(=O)O[C@@]21C (stereo in doubt) [7B, (3aS,4R,7R,9R,10R,11S,13R,15R,15aR)-10-(((2S,3R,4S,6R)-4-(dimethylamino)-3-hydroxy-6-methyltetrahydro-2H-pyran-2-yl)oxy)-4-ethyl-3a,7,9,11,13,15-hexamethyl-11-((3-(5-(2-methyl-2H-tetraazol-5-yl)thien-2-yl)prop-2-ynyl)oxy)octahydro-2H-oxacyclotetradecino[4,3-d][1,3]oxazole-2,6,8,14(1H,7H,9H)-tetrone] | 11900 | 1.5 | 9 | 720 | 1.3 | 9660 | 80.3 | 6.7 | 0.9 | 1.2 | – | – | – | – | – | – | – | –
2 | CC[C@H]1OC(=O)[C@@](C)(F)C(=O)[C@H](C)[C@@H](O[C@@H]2O[C@H](C)C[C@H](N(C)C)[C@H]2O)[C@@](C)(OCC#Cc2ccc(-c3nnn(C)n3)s2)C[C@@H](C)C(=O)[C@H](C)[C@H]2NC(=O)O[C@@]21C [3B, (3aS,4R,7S,9R,10R,11S,13R,15R,15aR)-10-(((2S,3R,4S,6R)-4-(dimethylamino)-3-hydroxy-6-methyltetrahydro-2H-pyran-2-yl)oxy)-4-ethyl-7-fluoro-3a,7,9,11,13,15-hexamethyl-11-((3-(5-(2-methyl-2H-tetraazol-5-yl)thien-2-yl)prop-2-ynyl)oxy)octahydro-2H-oxacyclotetradecino [4,3-d][1,3]oxazole-2,6,8,14(1H,7H,9H)-tetrone] | – | – | – | – | – | – | – | – | 1.6 | 3.1 | 73.6 | 7290 | 0.16 | 14.4 | 5140 | 250 | 2 | 11.1
3 | CC[C@H]1OC(=O)[C@H](C)C(=O)[C@H](C)[C@@H](O[C@@H]2O[C@H](C)C[C@H](N(C)C)[C@H]2O)[C@@](C)(OC/C=C/c2ccc(-c3nnn(C)n3)s2)C[C@@H](C)C(=O)[C@H](C)[C@H]2NC(=O)O[C@@]21C [4B, (3aS,4R,7R,9R,10R,11S,13R,15R,15aR)-10-(((2S,3R,4S,6R)-4-(dimethylamino)-3-hydroxy-6-methyltetrahydro-2H-pyran-2-yl)oxy)-4-ethyl-3a,7,9,11,13,15-hexamethyl-11-(((2E)-3-(5-(2-methyl-2H-tetraazol-5-yl)thien-2-yl)prop-2-enyl)oxy)octahydro-2H-oxacyclotetradecino[4,3-d][1,3]oxazole-2,6,8,14(1H,7H,9H)-tetrone] | – | – | – | – | – | – | – | – | 0.9 | 1.1 | 63 | 11520 | 0.09 | 8.4 | 6770 | 490 | 1.5 | 7.8
4 | CC[C@H]1OC(=O)[C@@](C)(F)C(=O)[C@H](C)[C@@H](O[C@@H]2O[C@H](C)C[C@H](N(C)C)[C@H]2O)[C@@](C)(OC/C=C/c2ccc(-c3nnn(C)n3)s2)C[C@@H](C)C(=O)[C@H](C)[C@H]2NC(=O)O[C@@]21C [8B, (3aS,4R,7S,9R,10R,11S,13R,15R,15aR)-10-(((2S,3R,4S,6R)-4-(dimethylamino)-3-hydroxy-6-methyltetrahydro-2H-pyran-2-yl)oxy)-4-ethyl-7-fluoro-3a,7,9,11,13,15-hexamethyl-11-(((2E)-3-(5-(2-methyl-2H-tetraazol-5-yl)thien-2-yl)prop-2-enyl)oxy)octahydro-2H-oxacyclotetradecino[4,3-d][1,3]oxazole-2,6,8,14(1H,7H,9H)-tetrone] | – | – | – | – | – | – | – | – | 1.1 | 2.3 | 81.1 | 16130 | 0.07 | 22.9 | 12600 | 480 | 4.5 | 17.2
